Several values for one entry are separate records, joined by “and”; a condition that tells them apart may be missing. Equal values may be shown once. Where a name gives a salt, the structure may show the parent alone. Read-outs that look alike come from different tables or passages of the source.
Assays:
[1] = test system: supported morphine antibodies; assay: Binding of free radical labeled morphine to supported morphine antibodies (ESR); set-up: species or system rabbit; details: pH 8 borate buffer, 10^-4 M label, 2 hours
[2] = Storage stability of the cocaine assay spin label (binding constant); assay type: physicochemical; details: storage in distilled water, substantially metal ion free, carbon dioxide bubbled through
Protocol: The spin labeled compound employed was prepared according to Example 7.1.

[3] = test system: dinitrophenyl antibodies; assay: Spin immunoassay with labeled dinitrophenyl hapten and dinitrophenyl antibodies (ESR); assay type: binding; details: increasing amounts, 10^-5 M solution in water, maximum 14 μl
Protocol: (The antibodies were prepared according to Eisen, et al., JACS, 75, 4583 (1953) and the labeled hapten was prepared in accordance with Hsia, et al, Archives of Biochemistry and Biophysics 132, 466 (1969)). The following procedure was employed. The quantities of the two compounds were chosen by adding small portions of the haptens to the antibody solution until the ESR signal intensity began to rise sharply with addition of each portion. At this point, all the binding sites on the antibodies were occupied by the label and the addition was stopped. Increasing amounts of N-epsilon-dinitrophenyllysine were then added to the solution.
The labeled hapten was dissolved in 20 percent aq. methanol at about 1-2 × 10^-^5 M concentration. Approximately 10 μl of the antibody solution and 10-20 μl of the labeled hapten solution were combined and varying amounts of 10^-^5 M solution of N-epsilon-dinitrophenyllysine in water added, the maximum being 14 μl.
By using appropriate standards, the ESR signal intensity may be related to the concentration of the N-epsilon dinitrophenyllysine in solution. Therefore, by taking an unknown solution suspected of having such a hapten, and introducing a standardized amount of the antibody-hapten complex, one can rapidly determine the concentration of the N-epsilon dinitrophenyllysine in solution.

[4] = test system: secobarbital antibody; assay: Secobarbital (seconal) spin immunoassay
[5] = test system: phenobarbital antibody; assay: Phenobarbital spin immunoassay; details: 1 × 10^-5 M (2.2-2.6 μg/ml), pH 7, 10 µM
[6] = test system: Amphetamine antibody; assay: Amphetamine spin immunoassay; assay type: binding, rabbit; details: for mobilization with urine of individuals who indicated taking cross reacting substances: six of 100 urines, background 10% or less
Protocol: Two plastic cups were employed. In one cup was 2.5 μl of 0.2 M sodium dichromate. In the other cup was 5.0 μl of antibody solution. The sample was transferred employing a 25 μl Oxford Sampler and introduced into the cup containing dichromate. The dichromate sample solution was agitated by means of the sample, drawn up with the sampler and introduced into the cup containing antibody, without touching the antibody. To the resulting solution was then added 5 μl of spin label, the sample was then stirred with an ESR capillary tube, the sample allowed to rise into the capillary and the spectrum read.

[7] = test system: antibody (cocaine assay); assay type: binding, rabbit; details: read from graph
[8] = test system: morphine antibody; assay: Detection of morphine and its metabolite in urine by spin immunoassay (ESR); assay type: binding, rabbit
[9] = test system: morphine antibodies; assay: Morphine spin immunoassay (ESR), specificity; details: spin label of Example 2.1
[10] = test system: antibody (methadone assay); assay type: binding, rabbit; details: 3.4 μg/ml
Protocol: The spin immunoassay was carried out similarly to the prior assays. Two plastic cups were employed, one cup containing 5 μl of 0.2 molar sodium dichromate and the second 5 μl of borate buffered antibody at pH 8. […] To the dichromate is added 50 μl of sample and a 20 μl aliquot is transferred from the first cup to the second cup containing the antibody solution.
Fifty-five urine samples were tested according to the above procedure.

[11] = urine samples 6-10 of drug takers, percentage of maximum increase with high concentrations of morphine, drug taken

CN1CC[C@]23c4c5ccc(OCC(=O)NC6CC(C)(C)N([O])C(C)(C)C6)c4O[C@H]2[C@@H](O)C=C[C@H]3[C@H]1C5 [Example 2.2, 4-[2'(O^3" Morphino)acetamido]-2,2,6,6-tetramethylpiperidino-1-oxyl]
binding of the free radical labeled morphine to the receptor (ESR signals) [1]: broad ESR signals indicating the binding of the free radical labeled morphine to the receptor

COC(=O)[C@H]1[C@@H](OC(=O)c2ccc(NC(=O)C3CC(C)(C)N([O])C3(C)C)cc2)C[C@@H]2CC[C@H]1N2C (some centres unmarked) [Example 7.1]
binding constant on storage of the spin label [2]: the binding constant diminished with time unless the spin label was stored at pH 5 in the absence of any buffer

NC(CCCCNc1ccc([N+](=O)[O-])cc1[N+](=O)[O-])C(=O)O (centres unmarked) [N-epsilon-dinitrophenyllysine]
ESR signal on addition to antibodies-labeled hapten complex [3]: an increase in the ESR signal was observed

CCC1(CCC(C)C)C(=O)NC(=O)NC1=O [amobarbital]
minimum concentration that could be detected [4]: 2.5 µg/mL
% Mobilization [5]: 16%

CC(N)Cc1ccccc1 (centres unmarked) [amphetamine.HCl]
% Mobilization ([6]; 1.7 μg/ml (1.1 × 10^-5 M)): 26%

CC(N)Cc1ccccc1 (centres unmarked) [amphetamine]
recognition by the amphetamine antibody [6]: recognizes
peak ratio (amphetamine/saline) ([6]; 10^-3 molar amphetamine, loading ratio 0.95): 5
mobilization with urine of individuals who indicated taking cross reacting substances [6]: greater than 14%

CC(Cc1ccccc1)N(C)Cc1ccccc1 (centres unmarked) [benzophetamine.HCl]
% Mobilization ([6]; 2.5 μg/ml (0.8-2.1 × 10^-5 M)): 12%

COC(=O)[C@H]1[C@@H](OC(=O)c2ccccc2)C[C@@H]2CC[C@H]1N2C [cocaine]
% Mobilization ([7]; 1 μg/ml): 49%
% Mobilization ([7]; 10 μg/ml): 80%

COc1ccc2c3c1O[C@H]1[C@@H](O)C=C[C@H]4[C@@H](C2)N(C)CC[C@@]341 [codeine]
% Signal Increase [8, 11]: 75% and 62%
detection by the morphine assay [9]: detected by the same procedure

COc1ccc2c(c1)[C@]13CCCC[C@@H]1[C@H](C2)N(C)CC3 [dextromethorphan]
% Mobilization ([7]; 10 μg/ml): 33%

CCC1(c2ccccc2)CCC(=O)NC1=O (centres unmarked) [glutethimide]
% Mobilization [5]: 0.5%

CC(=O)Oc1ccc2c3c1O[C@H]1[C@@H](OC(C)=O)C=C[C@H]4[C@@H](C2)N(C)CC[C@@]341 [heroin]
% Signal Increase ([8]; urine of single heroin user, day 2, drug taken on second and fifth days): 57%
% Signal Increase ([8]; urine of single heroin user, day 3, drug taken on second and fifth days): 32%
% Signal Increase ([8]; urine of single heroin user, day 4, drug taken on second and fifth days): 26%
% Signal Increase ([8]; urine of single heroin user, day 5, drug taken on second and fifth days): 47%
% Signal Increase ([8]; urine of single heroin user, day 6, drug taken on second and fifth days): 26%
% Signal Increase ([8]; urine of single heroin user, day 7, drug taken on second and fifth days): 16%
% Signal Increase ([8]; urine of single heroin user, day 8, drug taken on second and fifth days): 8%
% Signal Increase ([8]; urine of single heroin user, day 9, drug taken on second and fifth days): 40%
% Signal Increase [8, 11]: 81% and 100%

CNC(C)(C)Cc1ccccc1 [mephentermine.H2 SO4]
% Mobilization ([6]; 2.5 μg/ml (0.8-2.1 × 10^-5 M)): 28%

CNC(C)(C)Cc1ccccc1 [mephentermine]
recognition by the amphetamine antibody [6]: recognizes
% Mobilization ([7]; 10 μg/ml): 35%

CCC1(c2ccccc2)C(=O)NC(=O)N(C)C1=O (centres unmarked) [mephobarbital]
% Mobilization [5]: 32%

COc1cc(CCN)cc(OC)c1OC [mescaline]
mobilization with urine of individuals who indicated taking cross reacting substances [6]: greater than 14%

CCC(=O)C(CC(C)N(C)C)(c1ccccc1)c1ccccc1 (centres unmarked) [methadone]
detection by the morphine assay [9]: insensitive

CNC(C)Cc1ccccc1 (centres unmarked) [methamphetamine.HCl]
% Mobilization ([6]; 2.5 μg/ml (0.8-2.1 × 10^-5 M)): 29%

CN[C@@H](C)Cc1ccccc1 [methamphetamine]
recognition by the amphetamine antibody [6]: recognizes

CCC1(CC)C(=O)NC(=O)N(C)C1=O [metharbital]
% Mobilization [5]: 6%

CN1CC[C@]23c4c5ccc(O[C@@H]6O[C@H](C(=O)O)[C@@H](O)[C@H](O)[C@H]6O)c4O[C@H]2[C@@H](O)C=C[C@H]3[C@H]1C5 [morphine-O^3 -glucuronide]
detection by the morphine assay [9]: can also be detected

C=CCN1CC[C@]23c4c5ccc(O)c4O[C@H]2[C@@H](O)C=C[C@H]3[C@H]1C5 [nalorphine]
detection by the morphine assay [9]: can also be detected

CCCC(C)C1(CC)C(=O)NC(=O)NC1=O (centres unmarked) [pentobarbital]
minimum concentration that could be detected [4]: 2 µg/mL

NCCc1ccccc1 [phenethylamine]
% Mobilization ([6]; 2.5 μg/ml (0.8-2.1 × 10^-5 M)): 26%

CCC1(c2ccccc2)C(=O)NC(=O)NC1=O [phenobarbital]
% Mobilization [5]: 25%

CC(N)C(O)c1ccccc1 (centres unmarked) [phenylpropanolamine.HCl]
% Mobilization ([6]; 2.5 μg/ml (0.8-2.1 × 10^-5 M)): 13%

CC(N)C(O)c1ccccc1 (centres unmarked) [phenylpropanolamine]
mobilization with urine of individuals who indicated taking cross reacting substances [6]: greater than 14%
% Mobilization ([7]; 10 μg/ml): 26%

CNC(C)CC1CCCCC1 (centres unmarked) [propylhexedrine.HCl]
% Mobilization ([6]; 250 μg/ml (131 × 10^-5 M)): 71%

CN[C@@H](C)[C@@H](O)c1ccccc1 [pseudophedrine]
mobilization with urine of individuals who indicated taking cross reacting substances [6]: greater than 14%

C=CCC1(C(C)CCC)C(=O)NC(=O)NC1=O (centres unmarked) [secobarbital]
sensitivity of the assay [4]: the greatest sensitivity is achieved with secobarbital
% Mobilization [5]: 7%

CCCC(C)C1(CC)C(=O)NC(=O)NC1=O (centres unmarked) [sodium pentobarbital]
% Mobilization [5]: 10%

CCC1(c2ccccc2)C(=O)NC(=O)NC1=O [sodium phenobarbital]
minimum concentration that could be detected [4]: 40 µg/mL

CCCC(C)C1(CC)C(=O)NC(=S)NC1=O (centres unmarked) [thiopental sodium]
minimum concentration that could be detected [4]: 3.5 µg/mL

CN(C)CCCN1c2ccccc2Sc2ccc(Cl)cc21 [thorazine]
% Mobilization [10]: 9%

Source: US3966744A, “Spin labeled compounds” (priority 1974, dated 1976)
